From patent publication US7868043B2, “Mesophasic forms of (3S)-aminomethyl-5-methyl-hexanoic acid prodrugs and methods of use” (Xenoport, Inc., priority 2008, dated 2011) come the findings set out here.

The data set is described as follows: Intracolonic bioavailability in monkeys. The data set is classed as in vivo, Cynomologous monkeys. The settings on record: monkey, whole blood; bioavailability of pregabalin (F %, (SD)) after intracolonic administration, 10 mg-eq pregabalin/kg, suspension, 4 male monkeys, blood LC-MS/MS; salts before crystallization; read-out: Intracolonic Bioavailability Fic (%). The method, then: Male Cynomologous monkeys weighing about 2.3 kg were used in the studies. Monkeys were fasted overnight prior to the study until 4 hours after dosing. Water was provided ad libitum.
Calcium (3S)-{[(1R)-isobutanoyloxyethoxy]carbonylaminomethyl}-5-methyl-hexanoate (5), calcium (3S)-{[(1S)-isobutanoyloxyisobutoxy]carbonylaminomethyl}-5-methyl-hexanoate (6), or calcium (3S)-{[(1R)-benzoyloxyethoxy]carbonylaminomethyl}-5-methyl-hexanoate (7) (obtained as described in Examples 4, 8, and 12, respectively, and before crystallization according to Examples 13, 14, and 15, respectively) were prepared as a suspension (21.4 mg/mL) in 0.5% methyl cellulose/0.1% Tween-80 in NaH2PO4 pH 7.02.
Calcium (3S)-{[(1R)-isobutanoyloxyethoxy]carbonylaminomethyl}-5-methyl-hexanoate (5), calcium (3S)-{[(1S)-isobutanoyloxyisobutoxy]carbonylaminomethyl}-5-methyl-hexanoate (6), or calcium (3S)-{[(1R)-benzoyloxyethoxy]carbonylaminomethyl}-5-methyl-hexanoate (7) (1 mL/kg; 10 mg-eq pregabalin/kg) were administered intracolonically to 4 monkeys. […]
Blood samples were analyzed by a sensitive and specific LC-MS/MS method for simultaneous determination of (3S)-{[(1R)-isobutanoyloxyethoxy]carbonylaminomethyl}-5-methyl-hexanoate, (3S)-{[(1S)-isobutanoyloxyisobutoxy]carbonylaminomethyl}-5-methyl-hexanoate, or (3S)-{[(1R)-benzoyloxyethoxy]carbonylaminomethyl}-5-methyl-hexanoate; and pregabalin. […]

Structures are written as SMILES.

`CC(C)C[C@H](CN)CC(=O)O` [Pregabalin, (3S)-aminomethyl-5-methyl-hexanoic acid]: the bioavailability worked out at 4%.

Broadly, the bioavailability is dose-corrected exposure relative to a reference, in per cent.
